Test results: patent US7829552B2, “Phosphorus-containing thyromimetics” (Metabasis Therapeutics, Inc., priority 2003, dated 2010)

What was measured:
[1] = test system: Sprague Dawley (SD) rat; assay: Cardiovascular activity of T3 mimetics in the Sprague Dawley rat, oral 7 days; type: in vivo; conditions: SD rats, p.o. 7 days, Compound 18 1 mg/kg, Compound cis-13-1 1-50 mg/kg/day
From the text: Method: […] The control group (n=6) was given vehicle only. […] On the 7th day after the start of dosing, animals were anesthetized with Isoflurane and the left ventricle cannulated with a high fidelity catheter tip transducer via the right carotid artery. Left ventricular pressure, its first derivative (LVdP/dt), lead I ECG, and heart rate (HR) triggered off the ECG waveform, were digitally recorded. LV dP/dt is a well accepted measure of ionotropic state. Systolic and diastolic aortic pressures were measured by retracting the catheter into the proximal aorta.

[2] = animals, e.g., rodent models and monkeys; cited from earlier work
[3] = test system: cholesterol-fed rat; conditions: cited from earlier work
[4] = test system: cholesterol-fed rat; assay: Subacute studies in cholesterol-fed rats, IP once-a-day for seven days: serum cholesterol, heart weight, heart GPDH
Protocol: The cholesterol-fed rat is an animal model of hypercholesterolemia generated by feeding the animals a diet with high cholesterol content.
Serum cholesterol values were assessed and the animals randomized into groups for treatment.

[5] = test system: Hypercholesterolemic rats; assay: Cholesterol lowering in hypercholesterolemic (cholesterol-fed) rats; type: in vivo, rat; conditions: for cholesterol lowering: hypercholesterolemic rats, 0.5 mg/kg/d orally; for efficacy in lowering cholesterol: another experiment, dose and route not given
Protocol: Plasma cholesterol values were assessed prior to and following treatment and the effects of compound were expressed as a percentage change from the pre-dose cholesterol levels. […] Compounds were routinely tested for oral efficacy at a dose of 0.5 mg/kg/d. Hypercholesterolemic rats were treated with vehicle, Compound 13-1-cis (a HepDirect version of Compound 7), Compound 19-1 (a diethyl ester of Compound 19-2), Compound 13-9 (a HepDirect version of Compound 19-2), Compound 12-5 (a bisPom version of compound 19-2), or Compound 15-5 (a bisamidate version of Compound 19-2) at 0.5 mg/kg/d orally. Compound 13-1-cis has been extensively characterized and was used as the positive control for the assay.

[6] = test system: Normal rats (Sprague-Dawley); assay: Subacute studies in normal rats, continuous infusion by osmotic pump: liver/heart mGPDH activity, heart weight; type: in vivo, rat; conditions: continuous infusion 1 mg/kg/day
From the text: Efficacy endpoints include serum cholesterol, liver mitochondrial glycerol phosphate dehydrogenase (mGPDH) activity and the expression of relevant liver genes (e.g., the LDL-receptor, apoB, cpt-1, spot14 and apoAI). Safety parameters include heart weight, heart rate, heart mGPDH activity, the expression and key genes involved in cardiac structure and function (e.g., Serca2, HCN2, Kv1.5, MHCα, MHCβ, Alpha1c), and standard plasma chemistry analysis (liver enzymes, electrolytes, creatinine). Endocrine effects are monitored by analysis of serum thyroid stimulating hormone (TSH). [Taylor et al., Mol Pharmacol 52(3): 542-7 (1997); Weitzel et al., Eur Biochem 268(14):4095-4103 (2001)]
Methods: mGPDH activity was analyzed in isolated mitochondria using 2-(4-iodophenyl)-3-(4-nitrophenyl)-5-phenyl tetrazolium chloride as the terminal electron acceptor (Gardner R S, Analytical Biochemistry 59:272 (1974)). Commercially available GPDH was used in each assay as a standard (Sigma, St. Louis, Mo.). Changes in levels of mRNA for liver and heart genes are analyzed using reverse transcriptase followed by real-time PCR analysis. The analysis is performed using an iCycler instrument (Biorad) and appropriate primers by means of standard methodology [e.g., Schwab D A et al. (2000) Life Sciences 66: 1683-94]. The amounts of mRNA are normalized to an internal control, typically, cyclophilin. Serum TSH is measured using an enzyme immunoassay (EIA) kit designed for rat TSH (Amersham Pharmacia Biotech, Arlington Heights, Ill.).
Normal rats (Sprague-Dawley) were maintained on a standard diet. […] The compounds were brought up to an appropriate volume using PBS and BSA to maintain solubility within the pump. The compounds were chemically stable in the excipient at 37° C. for 7 days.
Values are expressed as percent of control. (Table 4)

[7] = test system: Normal rats; assay: Hepatic triglyceride content in normal rats chronically infused for 7 days; type: in vivo, rat
Protocol: Normal rats were chronically infused with Compound 7 for 7 days. Liver triglycerides were analyzed following lipid extraction by the Bligh Dyer method (Bligh E G and Dyer W J, A rapid method of total lipid extraction and purification. Can J Med. Sci. 1959 (August); 37(8):911-7, incorporated herein by reference). Total triglycerides were analyzed in the liver extracts by an enzymatic assay (Thermo Electron Corporation). Total lipid was normalized to initial liver weight and triglyceride content was normalized to liver weight. […] There was a 4% reduction in liver triglycerides for this group and the results were not statistically significant.

[8] = biological target: T1, human thyroid hormone receptors TRα1 (Homo sapiens, UniProt P10827); assay: Receptor binding, scintillation proximity assay (SPA) with labeled T3; T3 binding also by gel filtration; conditions: SPA data; read-out: Ki TRα
T1 construct: made in house; host or cells: Sf9 insect cells (baculovirus co-infection of TR and RXRα), cell lysate
T1 sequence (P10827 1-410 isoform P10827-2): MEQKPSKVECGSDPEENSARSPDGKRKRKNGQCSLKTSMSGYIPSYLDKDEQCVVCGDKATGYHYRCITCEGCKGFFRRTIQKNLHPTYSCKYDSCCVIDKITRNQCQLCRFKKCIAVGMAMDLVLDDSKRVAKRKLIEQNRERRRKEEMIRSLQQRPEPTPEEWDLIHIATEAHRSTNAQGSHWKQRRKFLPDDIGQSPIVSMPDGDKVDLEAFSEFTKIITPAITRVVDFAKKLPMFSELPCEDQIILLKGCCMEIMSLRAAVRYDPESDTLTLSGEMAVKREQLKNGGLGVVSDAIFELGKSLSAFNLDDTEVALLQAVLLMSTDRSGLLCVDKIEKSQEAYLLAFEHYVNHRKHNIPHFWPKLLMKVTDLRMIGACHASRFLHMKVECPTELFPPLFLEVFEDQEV
T1 sequence (P19793 1-462 partner): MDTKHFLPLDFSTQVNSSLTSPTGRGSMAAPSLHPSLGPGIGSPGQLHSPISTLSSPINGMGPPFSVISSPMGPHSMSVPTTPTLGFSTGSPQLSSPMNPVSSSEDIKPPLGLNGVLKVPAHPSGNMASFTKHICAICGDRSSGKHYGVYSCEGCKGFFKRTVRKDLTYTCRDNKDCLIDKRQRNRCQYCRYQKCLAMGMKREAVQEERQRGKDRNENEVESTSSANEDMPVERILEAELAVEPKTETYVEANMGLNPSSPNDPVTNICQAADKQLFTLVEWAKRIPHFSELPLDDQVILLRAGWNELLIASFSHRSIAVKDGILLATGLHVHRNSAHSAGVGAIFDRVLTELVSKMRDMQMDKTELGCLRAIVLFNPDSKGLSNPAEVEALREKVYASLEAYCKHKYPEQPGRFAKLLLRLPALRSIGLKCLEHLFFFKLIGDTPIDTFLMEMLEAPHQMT
Protocol: (§1) Methods: Baculoviruses expressing TRα1, TRβ1 and RXRα were generated using cDNA and other reagents from Invitrogen (Carlsbad, Calif.). To produce TR/RXR heterodimer proteins, the sf9 insect cells were first grown to a density of 1−5×10^5 cells/mL. TRα1 or TRβ1 and RXRα baculovirus stocks were added to the cell culture with a ratio of 1 to 1 (multiplicity of infection=10). The cells were harvested three days after the infection.
(§2) Binding of compounds to either the TRα1 or TRβ1 were also performed by means of scintillation proximity assays (SPA). The SPA assay, a common method used for the quantitation of receptor-ligand equilibria, makes use of special beads coated with a scintillant and a capture molecule, copper, which binds to the histidine-tagged α or β receptor.

[9] = biological target: T2, human thyroid hormone receptors TRβ1 (Homo sapiens, UniProt P10828); assay: as above; conditions: SPA data; read-out: Ki TRβ
T2 construct: made in house; host or cells: Sf9 insect cells (baculovirus co-infection of TR and RXRα), cell lysate
T2 sequence (P10828 1-461): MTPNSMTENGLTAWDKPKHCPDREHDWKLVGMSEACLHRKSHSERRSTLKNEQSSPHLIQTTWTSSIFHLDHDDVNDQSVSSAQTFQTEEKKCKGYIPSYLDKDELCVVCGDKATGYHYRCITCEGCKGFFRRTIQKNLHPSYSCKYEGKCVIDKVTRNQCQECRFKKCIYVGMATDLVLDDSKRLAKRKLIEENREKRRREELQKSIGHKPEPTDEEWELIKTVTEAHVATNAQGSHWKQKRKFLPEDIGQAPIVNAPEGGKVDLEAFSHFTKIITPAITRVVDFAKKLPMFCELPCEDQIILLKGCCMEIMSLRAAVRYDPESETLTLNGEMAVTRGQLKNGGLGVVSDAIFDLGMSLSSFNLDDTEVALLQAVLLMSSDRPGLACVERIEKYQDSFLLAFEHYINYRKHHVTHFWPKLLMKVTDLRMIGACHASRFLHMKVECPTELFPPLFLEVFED
T2 sequence (P19793 1-462 partner): T1 sequence (P19793 1-462 partner)
Protocol: as §1, §2

With `CC(C)c1cc(Oc2c(Cl)cc(CC(=O)O)cc2Cl)ccc1O` [Compound 18, 3,5-dichloro-4-[4′-hydroxy-3′-iso-propylphenoxy]benzeneacetic Acid, reference compound] the Heart weight ([1]; vs control) was “significantly increased”, the “heart weight normalized to body weight” value ([1]; vs control) was “significantly increased” and the HR ([1]; vs vehicle) was “marked and statistically significant increases”. The “LV dP/dt” value ([1]; vs vehicle) was “marked and statistically significant increases”, the systolic aortic pressure ([1]; vs vehicle) was “marked and statistically significant increases” and the weight loss [2] was “result in weight loss in animals”. The “therapeutic index (TI) with respect to heart rate increases” value [3] was 40.

In the case of `Cc1cc(OCC(=O)O)cc(C)c1Cc1ccc(O)c(C(C)C)c1` [Compound 17, [3,5-dimethyl-4-(4′-hydroxy-3′-iso-propylbenzyl)phenoxy]acetic Acid], the serum cholesterol ([4]; 0.1-1 mg/kg/day, IP once-a-day for seven days) is reported as “significantly decreased serum cholesterol”, the “therapeutic window (separation between cholesterol lowering and cardiac toxicity)” value ([4]; cholesterol-fed rats) is reported as “no separation between efficacy (cholesterol lowering) and toxicity” and the cardiac hypertrophy ([4]; cholesterol-fed rats, IP seven days, Compound 17 0.1-1 mg/kg/day, Compound 7 all doses) is reported as “Undesirable cardiac hypertrophy was observed”.

For `CCOP(=O)(Cc1cc(Br)c(Oc2ccc(O)c(C(C)C)c2)c(Br)c1)OCC` [Compound 19-1], the change in vivo at 0.5 mg/kg/day ([5]; Rattus norvegicus, po, read-out: % Cholesterol Lowering) was -6.56%.

In the case of `CCOC(=O)[C@H](C)NP(=O)(Cc1cc(Br)c(Oc2ccc(O)c(C(C)C)c2)c(Br)c1)N[C@@H](C)C(=O)OCC` [Compound 15-5, Di-N-(L-1-ethoxycarbonylethylamino)[3,5-dibromo-4-(4′-hydroxy-3′-iso-propylphenoxy)benzyl]phosphonamide], the cholesterol lowering [5] is reported as “significant lowering of cholesterol”.

With `Cc1cc(OC[P@@]2(=O)OCC[C@@H](c3cccc(Br)c3)O2)cc(C)c1Cc1ccc(O)c(C(C)C)c1` [Compound 13-2-cis, 2-[(3,5-dimethyl-4-(4′-hydroxy-3′-iso-propylbenzyl)phenoxy)methyl]-4-(3-bromophenyl)-2-oxo-2λ^5-[1,3,2]-dioxaphosphonane] the “efficacy in lowering cholesterol” value [5] was “not efficiacous”.

In the case of `CC(C)c1cc(Oc2c(Br)cc(CP(=O)(OCOC(=O)C(C)(C)C)OCOC(=O)C(C)(C)C)cc2Br)ccc1O` [Compound 12-5, Di-(pivaloyloxymethyl)[3,5-dibromo-4-(4′-hydroxy-3′-iso-propylphenoxy)benzyl]phosphonate], the cholesterol lowering [5] is reported as “significant lowering of cholesterol”.

For `N[C@@H](Cc1cc(I)c(Oc2ccc(O)c(I)c2)c(I)c1)C(=O)O` [Compound T3, triiodothyronine], the “Heart GPDH” value [6] was 284% of control, the “Heart weight” value [6] was 146% of control and the “Liver GPDH” value [6] was 406% of control. For the same molecule, the “decrease in hepatic triglyceride content” value [7] was 4%.

With `Cc1cc(CCP(=O)(O)O)cc(C)c1Cc1ccc(F)c(C(C)C)c1` [Compound 42-2] the Ki [8] was > 2 µM and the Ki [9] was > 2 µM.

With `CC(C)c1cc(Oc2c(Cl)c(F)nc(NCP(=O)(OCOC(=O)C(C)(C)C)OCOC(=O)C(C)(C)C)c2Cl)ccc1O` [Compound 12-9] the “efficacy in lowering cholesterol” value [5] was “not efficiacous”.
